From PubChem BioAssay AID624491 (Broad Institute, 2012)

Each compound was assayed on D54 ERlucT glycosylation luciferase reporter, luminescence, 24 h (assay: blockers of NLG process in reporter cells – D54 ERlucT cells, luminescence, cherry-picks, dose response (AID 624491);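 note: signal gain reflects blocked N-linked glycosylation of a luciferase reporter; actives raise luciferase signal so AC26 marks activators of the reporter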).

| SMILES | AC26 [nM] |
| --- | --- |
| N=c1c(C(=O)NCc2ccco2)cc2c(=O)n3ccccc3nc2n1CCc1ccccc1 | 707 |
| Nc1nc(-c2ccccc2)cc(-c2ccccc2O)n1 | 4980 |
| COc1ccc(S(=O)(=O)Nc2c(C(=O)O)[nH]c3ccc(OC)cc23)c(OC)c1 | 5750 |
| COc1ccc(NC(=O)C2Cc3c(-c4cccc(NC(C)=O)c4)ccnc3O2)cc1 (centres undefined) | 1560 |
| Cc1cc(C)c2nc3nc(C)c(C)cc3c(N)c2c1 | 998 |
| CC(C)Oc1ccc(F)cc1-c1cc(C(=O)Nc2ccc(C(C)(C)C)cc2)[nH]n1 | 2040 |
| Cc1ccc(S(=O)(=O)[N-]c2nc3ccccc3nc2-n2cc[n+](Cc3ccccc3)c2)cc1 | 118 |
| COc1ccc(CCn2c(Br)nc3c2c(=O)[nH]c(=O)n3C)cc1 | 1080 |
| Cc1ccc2c(c1)C(=O)N1[C@H]3c4cc(Br)ccc4OC[C@@H]3[C@H](c3ccccc3)[C@]1(C)C(=O)N2 | 689 |
| O=C(/C=C/c1ccc([N+](=O)[O-])cc1)/C=C/c1ccco1 | 1140 |
| COc1ccc(C(=O)/C=C/c2ccccc2)c(O)c1 | 1520 |
| COc1ccccc1-c1c(C#N)c(N)nc2c1CCc1ccccc1-2 | 592 |
| CCOc1ccc2[nH]c3c(N4CCc5ccccc5C4)ncnc3c2c1 | 3460 |
| CCN1C(=O)CCN(C2CCCC2)c2nc(Nc3ccc(C(=O)NC4CCN(C)CC4)cc3OC)ncc21 | 479 |
| COc1cccc(/C=N/NC(=O)c2ccc(N3CCCC3=O)cc2)c1 | 3350 |
| CCOC(=O)c1ccccc1Nc1cn(C(C)=O)c2ccccc12 | 1790 |
| C[C@@H]1[C@@H](Sc2ccccc2)CC(=O)O[C@@H]1c1ccc(-c2ccccc2)cc1 | 920 |
| N#Cc1ccc(-c2cccs2)nc1SCc1cccnc1 | 242 |
| O=C(Cn1ncc(Cl)c(Cl)c1=O)N1CCOCC1 | 1220 |
| Cc1cc(Nc2cc(Cl)cc(Cl)c2)nc(N)n1 | 1280 |
| O=C(NCCN1C(=O)S/C(=C\c2ccccc2F)C1=O)C1=COCCO1 | 52.9 |
| CCCCc1ccc(N/C(N)=N/c2nc(C)cc(C)n2)cc1 | 4690 |
| Cc1ccc(-c2cc(C(=O)N3CC(C)OC(C)C3)c3ccccc3n2)o1 (centres undefined) | 4280 |
| Nc1ccc(C(=O)Nc2ccccc2N)cc1 | 2880 |
| OCCCCCN=c1cc(-c2ccccc2)oc2ccc(Cl)cc12 | 1970 |
| CSc1cccc(NC(=O)CCCOc2cc(=O)n(C)c3ccccc23)c1 | 4940 |
| Cc1[nH]c2ccccc2c1/C=N/NC(=O)c1cc(-c2ccncc2)nc2ccccc12 | 4040 |

| SMILES | AC26 [nM] |
| --- | --- |
| Cc1cc(C)c2c(c1)cc(C)c1nnc(SCC(=O)Nc3cc(C)on3)n12 | 12000 |
| CCCc1cc(C(=O)N/N=C/c2ccc(C)o2)c2ccccc2n1 | 1040 |
| CN(C)S(=O)(=O)c1ccc(N2CCCC2)c(C(=O)Nc2ccccc2)c1 | 957 |
| COc1cc([C@@H]2c3cc4c(cc3[C@@H](OC)[C@H]3COC(=O)[C@H]23)OCO4)cc(OC)c1O | 501 |
| COc1ccc2c(c1)[C@H]1[C@H](CO2)[C@H](c2ccccc2)[C@]2(C)C(=O)Nc3cc(OC)c(OC)cc3C(=O)N12 | 13.1 |
| O=C(c1[nH]c(C(F)(F)F)nc1-c1ccccc1)N1CCN(c2cccc(C(F)(F)F)n2)CC1 | 9230 |
| COc1ccc(CCn2c(=N)c(S(=O)(=O)c3ccc(C)cc3)cc3c(=O)n4ccccc4nc32)cc1 | 988 |
| COc1ccc(OC)c(NS(=O)(=O)c2ccc(SC)cc2)c1 | 7410 |
| CC(C)n1c(/C=C/[C@H](O)C[C@H](O)CC(=O)O)c(-c2ccc(F)cc2)c2ccccc21 | 77.8 |
| Cc1ccc(NC(=O)CSc2nnc(-c3ccco3)c(-c3ccco3)n2)cc1 | 1240 |
| COC(=O)c1cc(=O)n(-c2ccccc2)c(=Nc2ccccc2)s1 | 10800 |
| COc1cccc2nc3c(C(=O)NCCN(C)C)cccc3cc12 | 164 |
| CSCCOC(=O)c1[nH]c2c(c1C)C(=O)CC(c1ccco1)C2 (centres undefined) | 526 |
| Cc1cc(C)c2nc3nc(C)cc(C)c3c(N)c2c1 | 145 |
| COc1cc(C(=O)Nc2ccc3c(c2)CCN3C(C)=O)cc(OC)c1OC | 1240 |
| COc1cc(OC)c2nc(C)c3c(c2c1)N(c1ccc(O)cc1)CC3 | 1190 |
| Oc1ccc(C2=NNC(=NCc3ccc4c(c3)OCO4)SC2)c(O)c1 | 4890 |
| Cc1ccc2c(C)c3ccc4ccccc4c3c[n+]2c1 | 667 |
| O=C(CSCc1ccco1)Nc1cc(C(F)(F)F)ccc1N1CCOCC1 | 2080 |
| COc1cc(-c2nc(-c3ccccc3)c(-c3cccs3)[nH]2)cc(OC)c1OC | 3280 |
| COc1ccc(Nc2nc(N(C)c3ccccc3)nc(N)c2[N+](=O)[O-])cc1 | 271 |
| Cc1cccc(CCNC(=O)CCCOc2cc(=O)n(C)c3ccccc23)c1 | 4450 |
| Cn1cccc1/C=C1\SC(=Nc2ccccc2)NC1=O | 1150 |
| COc1ccc2nc3c(cc2c1)c(NC(=O)CC(C)C)nn3CC(C)C | 8100 |
| COc1ccc(N2CCc3c(C)nc4c(OC)cc(OC)cc4c32)cc1 | 3770 |
| COc1ccc(C(=O)/C=C/c2ccc(N(C)C)cc2)c(OC)c1 | 11700 |
| O=C(c1cccs1)N1CCC(c2nc3c(nnn3Cc3cccc(Cl)c3)c(=O)[nH]2)CC1 | 217 |
